Structures can show the parent of a compound that is named as a salt.

The assay addresses T1, human HFGAN72 receptor (Homo sapiens, UniProt O43613).
T1 construct: expressed in transfected cells; host or cells: HEK293
T1 sequence (O43613 1-425): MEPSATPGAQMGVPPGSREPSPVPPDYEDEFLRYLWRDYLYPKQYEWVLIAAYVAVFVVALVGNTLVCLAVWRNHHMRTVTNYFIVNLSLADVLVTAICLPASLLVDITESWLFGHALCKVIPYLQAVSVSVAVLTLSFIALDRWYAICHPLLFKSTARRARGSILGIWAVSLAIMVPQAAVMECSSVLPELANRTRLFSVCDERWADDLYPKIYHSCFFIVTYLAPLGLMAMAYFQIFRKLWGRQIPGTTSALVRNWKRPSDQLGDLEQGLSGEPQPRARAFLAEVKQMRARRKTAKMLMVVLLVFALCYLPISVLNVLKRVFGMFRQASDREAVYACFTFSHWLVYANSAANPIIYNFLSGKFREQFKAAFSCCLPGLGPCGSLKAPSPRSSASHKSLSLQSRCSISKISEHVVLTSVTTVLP
The experiment in a line: HFGAN72 receptor antagonist activity, FLIPR intracellular calcium assay against human Lig 72A. The class given is cell-based. To be noted: HEK293 cells expressing human HFGAN72 receptor; against 3.0 nM human Lig 72A; Kb=IC50/(1+([3/EC50]). The method, then: The HFGAN72 receptor antagonist activity of the compounds of formula (I), including those compounds in which X and Y both represent CH and without provisos a)-f), was determined in accordance with the following experimental method.
HEK293 cells expressing the human HFGAN72 receptor were grown in cell medium (MEM medium with Earl's salts) containing 2 mM L-Glutamine, 0.4 mg/mL G418 Sulphate from GIBCO BRL and 10% heat inactivated fetal calf serum from Gibco BRL. The cells were seeded at 20,000 cells/100 μl/well into 96-well black clear bottom sterile plates from Costar which had been pre-coated with 10 μg/well of poly-L-lysine from SIGMA. The seeded plates were incubated overnight at 37° C. in 5% CO2.
Agonists were prepared as 1 mM stocks in water:DMSO (1:1). EC50 values (the concentration required to produce 50% maximal response) were estimated using 11× half log unit dilutions (Biomek 2000, Beckman) in Tyrode's buffer containing probenecid (10 mM HEPES with 145 mM NaCl, 10 mM glucose, 2.5 mM KCl, 1.5 mM CaCl2, 1.2 mM MgCl2 and 2.5 mM probenecid; pH7.4). […] On the day of assay 50 μl of cell medium containing probenecid (Sigma) and Fluo3AM (Texas Fluorescence Laboratories) was added (Quadra, Tomtec) to each well to give final concentrations of 2.5 mM and 4 μM, respectively. […] Cell plates were then transferred to the Fluorescent Imaging Plate Reader (FLIPR, Molecular Devices) instrument and maintained at 37° C. in humidified air. […] Agonists were added (by the FLIPR) after 20 sec (during continuous reading). From each well, peak fluorescence was determined over the whole assay period and the mean of readings 1-19 inclusive was subtracted from this figure. The peak increase in fluorescence was plotted against compound concentration and iteratively curve fitted using a four parameter logistic fit (as described by Bowen and Jerman, 1995, TiPS, 16, 413-417) to generate a concentration effect value. Antagonist Kb values were calculated using the equation: […]
where EC50 was the potency of human Lig72A determined in the assay (in nM terms) and IC50 is expressed in molar terms.
A general note: A change in cytosolic calcium serves as a functional read-out for many receptors and channels.
A word on the Kb: it is the affinity of an antagonist, worked out from how it opposes an agonist. For `Cn1ccc2cc(NC(=O)Nc3ccnc4ccccc34)ccc21` [Example 1, 1-(1-Methyl-1H-indol-5-yl)-3-quinolin-4-ylurea], the antagonist equilibrium constant (Kb) is less than 100 nM. Under `CSc1ccc(NC(=O)Nc2ccnc3ccccc23)cc1` [Example 14, 1-(4-Methylthiophenyl)-3-quinolin-4-ylurea hydrochloride] stands less than 100 nM; under `COc1ccc(NC(=O)Nc2ccnc3ccccc23)cc1Cl` [Example 31, 1-(3-Chloro-4-methoxyphenyl)-3-quinolin-4-ylurea hydrochloride], less than 100 nM.

Source of the values: patent publication US6410529B1, “Phenyl urea and phenyl thiourea derivatives as HFGAN72 antagonists” (SmithKline Beecham p.l.c., priority 1997, dated 2002).
